For orientation: IC50 means the midpoint of a concentration-inhibition curve. Read a high IC50 as weaker potency in that assay.

Here are results for three compounds from ChEMBL document CHEMBL1142962, “Antiproliferative prenylated stilbenes and flavonoids from Macaranga alnifolia from the Madagascar rainforest” (J Nat Prod, 2007).

The assay relates to A2780 (human ovarian cancer). The assay can be described thus: Antiproliferative activity against drug-sensitive human A2780 cells.

In the case of `CC(C)=CCc1c(O)cc(/C=C/c2cc(O)c3c(c2)C[C@@H]2C(C)(C)[C@H](O)CC[C@@]2(C)O3)cc1O` [SCHWEINFURTHIN G], the midpoint of inhibition, the IC50, lay at 390 nM.

With `COc1cc(/C=C/c2cc(O)c3c(c2)OC(C)(C)C(O)C3)cc2c1O[C@]1(C)C[C@@H](O)[C@@H](O)C(C)(C)[C@H]1C2` (stereo partly drawn) [SCHWEINFURTHIN H], 4500 nM corresponded to half-maximal inhibition (IC50).

On to `CC(C)=CCc1c(O)cc(/C=C/c2cc(O)c3c(c2)C[C@@H]2C(C)(C)[C@H](O)[C@H](O)C[C@@]2(C)O3)cc1O` [VEDELIANIN], for which the IC50 was found to be 130 nM.
